Key:
[1] = tested on: CRF1R-mediated ERK1/2 phosphorylation; experiment: Modulation of CRF-stimulated ERK1/2 phosphorylation in COS-7 cells expressing HA-CRF1R; type: cell-based; conditions: wortmannin (0–100 nM), 30 min pretreatment; 100 nM CRF, 5 min
Method in brief: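 Lysates were immunoblotted for phospho-ERK1/2 Thr202/Tyr204. Phosphorylation was quantified by densitometry as the mean of three to five independent experiments.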

EGFR Tyr845 = experiment: CRF-induced EGFR phosphorylation at Tyr845 in COS-7 cells expressing HA-CRF1R; type: cell-based; conditions: 100 nM wortmannin, 30 min pretreatment; 100 nM CRF, 5 min
Procedure: COS-7 cells (from the American Type Culture Collection) were cultured at 37°C in a humidified atmosphere of 95% air, 5% CO2, in DMEM supplemented with 10% FBS, 100 μg/ml streptomycin, and 100 units/ml penicillin (COS-7 growth medium). Transient transfections were performed using LipofectAMINE (Life Technologies: Gaithersburg, MD) as described previously ([27]). Cells were seeded at 8 × 10^5 cells/10-cm dish in COS-7 medium and cultured for 3 days before transfection. COS-7 cells were transfected in 5 ml/dish OptiMEM containing 10 μg/ml LipofectAMINE with empty vector, pcDNA3 encoding the HA-CRF1R or the HA-CRF1R-Δ386 mutant. […]
The protocols for measuring total and phosphorylated ERK1/2, c-Src, PYK2, Akt, and EGFR have been previously published ([28], [29]). […] The labeled bands were quantified using the Quantity One 4.6.3 software program (Bio-Rad).
Figure 6 CRF mediates EGFR phosphorylation at Tyr^845 and activation of PYK2. […] Total cell lysates were separated by SDS-PAGE and analyzed by immunoblotting with anti-p-EGFR Tyr^845 (A,B) or anti-p-PYK2 Tyr^402 (E), as described in Materials and Methods. EGFR and ERK1/2 phosphorylation were quantitated by densitometry, and mean values were plotted from three to five independent experiments. […] Src and EGFR were quantitated by densitometry, and mean values were plotted from three independent experiments. […]

COC[C@H]1OC(=O)c2coc3c2[C@@]1(C)C1=C(C3=O)[C@@H]2CCC(=O)[C@@]2(C)C[C@H]1OC(C)=O [wortmannin]
effect on CRF-stimulated ERK1/2 phosphorylation [1]: abolished CRF-stimulated ERK1/2 phosphorylation
effect on CRF-induced EGFR Tyr845 phosphorylation (EGFR Tyr845): had no effect on CRF-induced phosphorylation of EGFR at Tyr^845
